Experimental data taken from patent US8440724B2, “Inhibiting neurotransmitter reuptake” (Mayo Foundation for Medical Education and Research, priority 2008, dated 2013).
Read-outs that look alike come from different tables or passages of the source.

What was measured:
[1] = biological target: T1, human dopamine transporter (hDAT) (Homo sapiens, UniProt Q01959); assay: Radioligand binding to cloned hDAT, [3H]WIN35428, HEK-293 cell membranes
T1 construct: expressed in transfected cells; host or cells: HEK-293, stably transfected
T1 sequence (Q01959 whole entry): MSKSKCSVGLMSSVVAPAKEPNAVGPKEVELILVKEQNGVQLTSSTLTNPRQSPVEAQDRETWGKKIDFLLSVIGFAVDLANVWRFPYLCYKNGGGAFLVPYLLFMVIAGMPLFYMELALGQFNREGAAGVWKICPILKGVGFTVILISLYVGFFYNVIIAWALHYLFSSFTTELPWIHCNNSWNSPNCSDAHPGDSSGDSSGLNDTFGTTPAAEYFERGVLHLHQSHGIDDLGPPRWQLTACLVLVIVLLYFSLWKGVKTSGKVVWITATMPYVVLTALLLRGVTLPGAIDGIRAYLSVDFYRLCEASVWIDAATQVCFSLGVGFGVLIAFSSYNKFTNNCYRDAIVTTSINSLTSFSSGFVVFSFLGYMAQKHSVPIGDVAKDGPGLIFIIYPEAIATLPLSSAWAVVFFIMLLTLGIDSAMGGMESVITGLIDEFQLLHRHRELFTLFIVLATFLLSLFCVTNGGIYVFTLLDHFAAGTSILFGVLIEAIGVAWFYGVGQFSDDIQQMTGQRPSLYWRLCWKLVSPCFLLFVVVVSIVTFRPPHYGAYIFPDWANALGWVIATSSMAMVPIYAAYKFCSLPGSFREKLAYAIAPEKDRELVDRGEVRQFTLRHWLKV
Description: (§1) HEK-293 cells expressing the recombinant hSERT or hDAT were incubated with Dulbecco's modified Eagles medium (MEM) supplemented with 0.1 mM nonessential amino acid solution for MEM, 5% v/v fetal bovine serum and 1 U/mL penicillin/streptomycin solution. Cells expressing the hNET transporter were incubated with Dulbecco's modified Eagles medium supplemented with 10% v/v fetal bovine serum and 100 U/mL penicillin/streptomycin solution and 2 mM L-glutamine. The cells were grown until 70-80% confluent on 175 cm^2 flasks in a humidified 10% CO2/90% air environment at 37° C., with the selecting antibiotic Geneticin sulfate at 250 μg/mL. The cells were incubated in 10% CO2, 90% air at 37° C. and 100% humidity.
(§2) Cell membranes containing hSERT, hNET, or hDAT were prepared from the cell lines to assay ligand binding for each of the transporters. […] The washed cells were incubated for 5 minutes at 37° C. in 10 mL solution 1 containing 100 mM ethylene glycol-bis N,N,N′,N′-tetraacetic acid (EGTA). The cells were then scraped from the flask surface with a rubber spatula, placed into a centrifuge tube, and collected by centrifugation at 1000×g for 5 minutes at 4° C. The resulting supernatant was discarded, and the cell pellet was resuspended in 0.5 to1.0 mL of the appropriate binding buffer (described below). The resuspended cell pellet was homogenized using a Polytron for 10 seconds at setting 6. The resulting homogenate was centrifuged at about 36,000×g for 10 minutes at 4° C. The supernatant was discarded, and the pellet was resuspended in the same volume of the appropriate binding buffer and centrifuged again. The supernatant was discarded, and the final pellet containing cell membranes was resuspended in the appropriate binding buffer and stored at −80° C. until use.
To assess binding to the cloned hDAT, cells expressing hDAT were homogenized in 50 mM Tris-HCl with 120 mM NaCl (pH 7.4). The binding reaction contained 15 μg cell membrane protein, 1 nM [^3H]WIN35428 (WIN35428, [N-methyl-^3H], specific activity 85.9 Ci/mmol; PerkinElmer, Boston, Mass.), and varying concentrations of either unlabeled WIN35428 or the test compound. A reaction to determine non-specific binding contained 15 μg cell membrane protein, 1 nM [^3H]WIN35428, and 10 μM final concentration of unlabeled WIN35428. The reactions were incubated at 22° C. for 1 hour. Following incubation, the reactions were terminated by rapid filtration through separate GF/B filter strips pretreated with 0.2% polyethylenimine in a 48-well Brandel cell harvester. The cell membrane-containing filter strips were then rinsed five times with ice-cold 0.9% NaCl. After rinsing, individual filters were cut from the strip and placed in a scintillation vial containing 6.5 mL of Redi-Safe (Beckman-Coulter, Fullerton, Calif.).
(§3) The program was modified to calculate the Hill coefficient (nH). Data are presented as geometric mean±S.E.M. of at least three independent experiments. One-component models and two-component models were compared using the root mean square error of each fit and the F test.

[2] = test system: hSERT, hNET, hDAT; assay: Human transporter binding: rank order and range of potency over the three transporters; conditions: for Potency (rank-order of potency of binding; S = hSERT, N = hNET, D = hDAT): from KD values; for Potency Range (difference between most potent and least potent binding): ratio of KD over hSERT, hNET, hDAT
Text: as §3

[3] = test system: rat 5-HT, NE and DA transport, synaptosomal preparations; assay: Rat brain synaptosomal transport: rank order of potency; format: biochemical; conditions: from Ki values; S = 5HT, N = NE, D = DA
Description: (§4) The dissected tissues were separately homogenized in 20 volumes (cortical) or 40 volumes (striatal) of ice-cold, oxygenated HEPES buffer 0.32 M sucrose containing 11 mM glucose (pH 7.4) in a glass Potter-Elvehjem homogenizer with Teflon® pestle (8 strokes, 900 rpm). The homogenates were centrifuged at 1,000×g for 10 minutes. The resulting supernatant was decanted and further centrifuged at 20,000×g for 20 minutes at 4° C. […] The synaptosomal protein concentration was determined by using the BCA assay (Pierce Biotechnology Inc, Rockford, Ill.), according to the manufacturer's instructions. Synaptosomal protein (1.0-2.5 mg) was suspended in 1 mL oxygenated incubation buffer as defined above. Test amine compound was pre-incubated with the synaptosomal preparation for 30 minutes at 37° C. in a shaking water bath (80 oscillations/minute).

[4] = test system: human serotonin, norepinephrine and dopamine transporters; assay: Transport into cells expressing human transporters: rank order of potency, comparison with rat; format: cell-based; conditions: from Ki values; S = 5-HT, N = NE, D = DA
[5] = biological target: human norepinephrine transporter (Homo sapiens, UniProt P23975); assay: Inhibition of [3H]NE transport into HEK-293 cells expressing the human transporter
Chain of human norepinephrine transporter (P23975 whole entry): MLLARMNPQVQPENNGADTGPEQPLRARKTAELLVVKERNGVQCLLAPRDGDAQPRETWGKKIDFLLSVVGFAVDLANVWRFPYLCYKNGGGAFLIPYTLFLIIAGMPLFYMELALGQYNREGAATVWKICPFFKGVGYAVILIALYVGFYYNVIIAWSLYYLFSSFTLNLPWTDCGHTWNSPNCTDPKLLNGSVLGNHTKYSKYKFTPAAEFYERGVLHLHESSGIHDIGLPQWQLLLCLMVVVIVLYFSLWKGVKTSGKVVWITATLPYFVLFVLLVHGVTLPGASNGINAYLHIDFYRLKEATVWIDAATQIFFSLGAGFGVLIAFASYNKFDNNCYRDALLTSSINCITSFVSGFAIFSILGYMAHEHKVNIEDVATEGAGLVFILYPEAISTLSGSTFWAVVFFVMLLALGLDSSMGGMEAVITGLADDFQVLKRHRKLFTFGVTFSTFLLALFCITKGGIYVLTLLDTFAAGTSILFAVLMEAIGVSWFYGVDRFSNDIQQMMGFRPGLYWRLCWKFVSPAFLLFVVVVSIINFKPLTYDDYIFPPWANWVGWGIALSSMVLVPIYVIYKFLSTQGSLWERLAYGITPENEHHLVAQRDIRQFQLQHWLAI

[6] = biological target: human dopamine transporter (Homo sapiens, UniProt Q01959); assay: Inhibition of [3H]DA transport into HEK-293 cells expressing the human transporter; conditions: read-out: Inhibitor Constant (Ki), DA transport; Geometric Mean ± SEM; HEK-293 whole cells
Chain of human dopamine transporter (Q01959 whole entry): as the sequence (Q01959 whole entry) above

[7] = biological target: T2, rat serotonin transporter, synaptosomal preparations (Rattus norvegicus, UniProt P31652); assay: Inhibition of [3H]5-HT reuptake in rat brain synaptosomes (frontal cortex); format: biochemical
T2 construct: from tissue; host or cells: rat frontal cortex synaptosomes (male Sprague-Dawley)
T2 sequence (P31652 whole entry): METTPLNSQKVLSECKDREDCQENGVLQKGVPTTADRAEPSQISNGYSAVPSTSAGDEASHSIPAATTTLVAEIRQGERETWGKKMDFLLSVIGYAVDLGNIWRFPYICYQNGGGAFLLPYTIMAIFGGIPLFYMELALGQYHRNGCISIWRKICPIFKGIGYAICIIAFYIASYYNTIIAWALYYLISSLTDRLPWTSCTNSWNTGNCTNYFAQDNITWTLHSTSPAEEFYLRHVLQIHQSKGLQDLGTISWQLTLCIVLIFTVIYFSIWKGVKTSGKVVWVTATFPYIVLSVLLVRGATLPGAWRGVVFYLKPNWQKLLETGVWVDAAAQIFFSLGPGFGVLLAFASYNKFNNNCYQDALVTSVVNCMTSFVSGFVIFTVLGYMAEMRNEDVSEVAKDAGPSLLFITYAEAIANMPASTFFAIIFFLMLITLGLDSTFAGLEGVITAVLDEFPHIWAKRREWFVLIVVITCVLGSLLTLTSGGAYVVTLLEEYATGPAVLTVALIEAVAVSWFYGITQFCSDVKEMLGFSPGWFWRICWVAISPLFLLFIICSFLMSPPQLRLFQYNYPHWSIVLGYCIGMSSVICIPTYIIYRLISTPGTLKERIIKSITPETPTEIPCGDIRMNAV
Description: as §4

[8] = biological target: T3, rat dopamine transporter, synaptosomal preparations (Rattus norvegicus, UniProt P23977); assay: Inhibition of [3H]DA reuptake in rat brain synaptosomes (striatum); format: biochemical
T3 construct: and striatal tissues for transport of dopamine; from tissue; host or cells: rat striatum synaptosomes (male Sprague-Dawley)
Description: as §4

[9] = biological target: T4, rat norepinephrine transport, synaptosomal preparations (Rattus norvegicus, UniProt Q63380); assay: Inhibition of [3H]NE reuptake in rat brain synaptosomes (occipital cortex); format: biochemical
T4 construct: from tissue; host or cells: rat occipital cortex synaptosomes (male Sprague-Dawley)
T4 sequence (Q63380 1-617): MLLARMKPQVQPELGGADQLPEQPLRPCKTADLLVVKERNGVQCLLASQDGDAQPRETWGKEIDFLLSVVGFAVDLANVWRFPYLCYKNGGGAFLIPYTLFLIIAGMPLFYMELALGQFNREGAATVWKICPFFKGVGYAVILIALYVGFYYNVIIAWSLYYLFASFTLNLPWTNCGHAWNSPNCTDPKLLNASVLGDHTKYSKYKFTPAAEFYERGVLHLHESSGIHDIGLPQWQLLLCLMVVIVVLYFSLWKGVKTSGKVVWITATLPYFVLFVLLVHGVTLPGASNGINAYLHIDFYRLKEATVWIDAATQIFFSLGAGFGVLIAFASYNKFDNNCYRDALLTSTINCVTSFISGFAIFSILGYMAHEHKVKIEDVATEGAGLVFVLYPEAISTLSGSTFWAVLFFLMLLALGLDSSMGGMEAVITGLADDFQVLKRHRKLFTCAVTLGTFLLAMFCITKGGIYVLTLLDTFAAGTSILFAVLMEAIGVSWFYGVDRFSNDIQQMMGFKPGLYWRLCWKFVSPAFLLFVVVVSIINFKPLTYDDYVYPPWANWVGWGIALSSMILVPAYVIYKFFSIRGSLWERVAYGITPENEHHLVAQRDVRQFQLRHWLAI
Description: as §4

[10] = biological target: human serotonin transporter (Homo sapiens, UniProt P31645); assay: Inhibition of [3H]5-HT transport into HEK-293 cells expressing the human transporter
[11] = biological target: T5, human serotonin transporter (hSERT) (Homo sapiens, UniProt P31645); assay: Radioligand binding to cloned hSERT, [3H]citalopram, HEK-293 cell membranes
T5 construct: expressed in transfected cells; host or cells: HEK-293, stably transfected
T5 sequence (P31645 whole entry): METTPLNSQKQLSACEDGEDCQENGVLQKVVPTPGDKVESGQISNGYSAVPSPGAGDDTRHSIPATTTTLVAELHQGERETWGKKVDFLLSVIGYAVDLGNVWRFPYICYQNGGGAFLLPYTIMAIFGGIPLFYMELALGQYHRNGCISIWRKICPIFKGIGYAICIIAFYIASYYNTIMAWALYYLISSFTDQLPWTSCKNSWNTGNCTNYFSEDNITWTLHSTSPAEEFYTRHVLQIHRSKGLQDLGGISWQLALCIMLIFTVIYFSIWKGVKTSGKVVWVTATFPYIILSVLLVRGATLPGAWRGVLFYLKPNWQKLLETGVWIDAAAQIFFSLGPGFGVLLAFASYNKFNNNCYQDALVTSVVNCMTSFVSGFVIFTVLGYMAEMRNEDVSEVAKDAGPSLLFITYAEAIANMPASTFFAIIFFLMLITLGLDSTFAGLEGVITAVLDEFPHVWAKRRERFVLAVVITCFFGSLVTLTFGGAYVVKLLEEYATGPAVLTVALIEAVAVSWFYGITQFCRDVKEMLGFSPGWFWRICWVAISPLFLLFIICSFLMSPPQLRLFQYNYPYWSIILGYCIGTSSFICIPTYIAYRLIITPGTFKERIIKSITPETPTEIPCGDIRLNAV
Description: as §1, §2
Radioligand binding assays for the indicated transporters were performed as follows. To assess binding to the cloned hSERT, cells expressing hSERT were homogenized in 50 mM Tris-HCl with 120 mM NaCl and 5 mM KCl (pH 7.4). The binding reaction consisted of 10 μg cell membrane protein, […] [^3H]citalopram (citalopram, [N-methyl-^3H], specific activity 79.0 Ci/mmol; PerkinElmer, Boston, Mass.), and varying concentrations of either unlabeled citalopram or the test compound. A reaction to determine non-specific binding consisted of 10 μg cell membrane protein, 0.5 nM [^3H]citalopram, and 1 μM final concentration of unlabeled citalopram. The reactions were incubated at 22° C. for 60 minutes. Following incubation, the reactions were terminated by rapid filtration through separate GF/B filter strips pretreated with 0.2% polyethylenimine in a 48-well Brandel cell harvester. The cell membrane-containing filter strips were then rinsed five times with ice-cold 0.9% NaCl. After rinsing, individual filters were cut from the strip and placed in a scintillation vial containing 6.5 mL of Redi-Safe (Beckman-Coulter, Fullerton, Calif.).
as §3

[12] = biological target: T6, human norepinephrine transporter (hNET) (Homo sapiens, UniProt P23975); assay: Radioligand binding to cloned hNET, [3H]nisoxetine, HEK-293 cell membranes
T6 construct: expressed in transfected cells; host or cells: HEK-293, stably transfected
T6 sequence (P23975 whole entry): as the sequence (P23975 whole entry) above
Description: as §1, §2
To assess binding to the cloned hNET, cells expressing hNET were homogenized in 50 mM Tris-HCl with 300 mM NaCl and 5 mM KCl (pH 7.4). The binding reaction consisted of 5 μg cell membrane protein, 0.5 nM [^3H]nisoxetine (nisoxetine HCl, [N-methyl-^3H], specific activity 82.0 Ci/mmol; Amersham, Arlington Hts., Ill.), and varying concentrations of either unlabeled nisoxetine or the test compound. A reaction to determine non-specific binding consisted of 5 μg cell membrane protein, 0.5 nM [^3H]nisoxetine, and 1 μM final concentration of unlabeled nisoxetine. The reactions were incubated at 22° C. for 60 minutes. Following incubation, the reactions were terminated by rapid filtration through separate GF/B filter strips pretreated with 0.2% polyethylenimine in a 48-well Brandel cell harvester. The cell membrane-containing filter strips were then rinsed five times with ice-cold 0.9% NaCl. After rinsing, individual filters were cut from the strip and placed in a scintillation vial containing 6.5 mL of Redi-Safe (Beckman-Coulter, Fullerton, Calif.).
as §3

[13] = biological target: T7, CYP2D6 (Homo sapiens, UniProt P10635); assay: CYP2D6 inhibition, CYP2D6/AMMC kit (BD Biosciences), fluorescent substrate; format: in vitro ADME
T7 construct: purchased BD Biosciences 459200
T7 sequence (P10635 whole entry): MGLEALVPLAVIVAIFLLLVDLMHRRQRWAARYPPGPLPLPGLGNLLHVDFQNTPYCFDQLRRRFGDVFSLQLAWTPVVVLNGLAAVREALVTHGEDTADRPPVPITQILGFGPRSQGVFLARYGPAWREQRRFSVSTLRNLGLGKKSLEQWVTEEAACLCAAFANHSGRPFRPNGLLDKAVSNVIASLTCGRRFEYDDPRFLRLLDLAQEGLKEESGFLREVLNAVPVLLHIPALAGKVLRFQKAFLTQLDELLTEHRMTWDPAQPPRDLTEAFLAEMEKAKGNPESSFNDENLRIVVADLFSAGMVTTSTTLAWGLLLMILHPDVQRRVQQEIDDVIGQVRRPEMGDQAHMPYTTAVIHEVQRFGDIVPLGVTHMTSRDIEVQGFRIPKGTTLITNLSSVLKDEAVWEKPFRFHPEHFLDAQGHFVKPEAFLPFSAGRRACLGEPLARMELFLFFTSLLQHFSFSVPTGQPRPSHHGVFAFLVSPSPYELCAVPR
Text: This kit includes the use of a fluorescent P450 substrate (AMMC or 3-[2-(N,N-diethyl-N-methylamino)ethyl]-7-methoxy-4-methylcoumarin) and recombinant human P450.

[14] = test system: Male Sprague-Dawley rats; assay: Forced swim test in rats; format: in vivo, rat; conditions: 5 mg/kg IP; for Antidepressant activity in forced swim test compared with imipramine (15 mg/kg IP): FIG. 12A
Description: When rats are placed in a cylinder of water from which they cannot escape, they will remain immobile in the water for the majority of the test.
Water was changed between trials, and the procedure involved a pretest and a 5-minute test separated by 24 hours. During the pretest, rats (adapted to the experimental room for no less than one hour) were placed in the cylinder for 15 minutes. Following this initial exposure, the rats were dried with towels and transferred to a “drying cage” situated under a warming lamp. […] The following day, rats were transferred to the experimental room and acclimated for at least one hour.
The rat was considered immobile when floating motionless or making only those movements necessary to keep its head above the surface of the water. Scores for each behavior (swimming or immobility) were expressed as total counts per 5-minute session. Statistical analysis was performed using ANOVA followed by the Tukey test for post-hoc comparisons.

[15] = biological target: hERG (Homo sapiens, UniProt Q12809); assay: hERG assay: block of rubidium ion (Rb+) efflux from cells expressing hERG
Chain of hERG (Q12809 whole entry): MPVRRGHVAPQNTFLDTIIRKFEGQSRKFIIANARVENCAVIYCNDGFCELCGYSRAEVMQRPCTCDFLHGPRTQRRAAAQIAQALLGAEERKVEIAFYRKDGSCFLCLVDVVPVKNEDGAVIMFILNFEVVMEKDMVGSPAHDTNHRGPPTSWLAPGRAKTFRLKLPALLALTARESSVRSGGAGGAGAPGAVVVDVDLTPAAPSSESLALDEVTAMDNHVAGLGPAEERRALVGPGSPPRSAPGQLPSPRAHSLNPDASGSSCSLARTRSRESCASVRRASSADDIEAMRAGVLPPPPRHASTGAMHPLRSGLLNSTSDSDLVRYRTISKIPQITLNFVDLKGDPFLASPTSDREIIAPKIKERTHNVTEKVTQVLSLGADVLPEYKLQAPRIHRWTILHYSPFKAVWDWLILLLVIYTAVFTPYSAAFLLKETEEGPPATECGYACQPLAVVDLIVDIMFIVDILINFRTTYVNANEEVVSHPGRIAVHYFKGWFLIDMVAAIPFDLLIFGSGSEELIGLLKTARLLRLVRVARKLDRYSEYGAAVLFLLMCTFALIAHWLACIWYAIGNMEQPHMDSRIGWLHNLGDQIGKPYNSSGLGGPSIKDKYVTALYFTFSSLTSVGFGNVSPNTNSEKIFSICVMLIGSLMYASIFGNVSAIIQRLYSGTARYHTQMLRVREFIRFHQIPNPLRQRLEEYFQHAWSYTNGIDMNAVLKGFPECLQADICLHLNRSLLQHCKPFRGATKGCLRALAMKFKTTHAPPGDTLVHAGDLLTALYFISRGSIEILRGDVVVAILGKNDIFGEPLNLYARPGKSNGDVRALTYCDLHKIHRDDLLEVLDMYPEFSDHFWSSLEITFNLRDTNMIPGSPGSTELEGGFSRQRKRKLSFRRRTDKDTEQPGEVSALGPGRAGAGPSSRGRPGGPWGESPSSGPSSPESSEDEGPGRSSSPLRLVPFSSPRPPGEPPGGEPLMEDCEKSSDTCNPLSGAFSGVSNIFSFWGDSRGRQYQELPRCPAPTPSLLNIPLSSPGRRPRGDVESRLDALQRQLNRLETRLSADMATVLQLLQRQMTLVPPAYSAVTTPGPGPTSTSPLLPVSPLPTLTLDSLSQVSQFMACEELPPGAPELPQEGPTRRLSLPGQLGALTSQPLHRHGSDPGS
Description: Human “ether-a-go-go” (hERG) is an ion channel. Blockade of this channel can be predictive of causing cardiac arrhythmias in humans. hERG assays were performed to measure the ability of a compound to block rubidium ion (Rb^+) efflux from cells expressing hERG. Cells were pre-loaded with Rb^+, incubated with test compound, and then exposed to a buffer that opens the channel and allows the efflux of ions. Compounds as powder were dissolved in 100% DMSO to prepare 100 mM stock solutions. […] The stocks were stored at 23° C.
The range of doses for the test compounds was 30 nM through 100,000 nM.

[16] = test system: mice; assay: Locomotor activity in motility chamber, mice; format: in vivo, mouse; conditions: 5 mg/kg IP, 10 minute intervals for 3 hours, FIG. 11

CNCC(c1ccc2ccccc2c1)C(OC)c1ccccc1 (racemic) [MCJ001-OMe-(±)-SR, (2R,3S/2S,3R)-3-methoxy-N-methyl-2-(naphthalen-2-yl)-3-phenylpropan-1-amine]
Kd ([1]; Geometric Mean ± SEM, HCl salts, read-out: Equilibrium Dissociation Constant (KD) for Transporter Binding, hDAT (D)): 600 ± 100 nM
Potency (rank-order of potency of binding; S = hSERT, N = hNET, D = hDAT) [2]: N = D > S
Potency Range (difference between most potent and least potent binding) [2]: 1.2 fold
Potency (rank order, transport into rat brain synaptosomal preparations) [3]: S > N > D
Potency (rank order, transport into cells expressing human transporters) [4]: N > S > D
Ki ([5]; read-out: Inhibitor Constant (Ki), NE transport, Geometric Mean ± SEM, HEK-293 whole cells): 20 ± 1 nM
Ki [6]: 2400 nM
Ki ([7]; Geometric Mean ± SEM, rat brain synaptosomes, read-out: Inhibitor Constant (Ki), 5HT transport): 90 ± 36 nM
Ki ([8]; Geometric Mean ± SEM, rat brain synaptosomes, read-out: Inhibitor Constant (Ki), DA transport): 1030 ± 30 nM
Ki ([9]; Geometric Mean ± SEM, rat brain synaptosomes, read-out: Inhibitor Constant (Ki), NE transport): 210 ± 30 nM
Ki ([10]; read-out: Inhibitor Constant (Ki), 5-HT transport, Geometric Mean ± SEM, HEK-293 whole cells): 60 ± 7 nM
Kd ([11]; Geometric Mean ± SEM, HCl salts, read-out: Equilibrium Dissociation Constant (KD) for Transporter Binding, hSERT (S)): 710 ± 50 nM

CNC[C@H](c1ccc2ccccc2c1)[C@H](F)c1ccccc1 [MCJ001-F-SS, (2S,3S)-3-fluoro-N-methyl-2-(naphthalen-2-yl)-3-phenylpropan-1-amine]
Kd [12]: 1.3 ± 0.2 nM
Kd [1]: 23.5 ± 0.9 nM
Binding at hDAT compared to PRC200-SS ([1]; in words): Enhanced binding to hDAT
Potency (rank-order of potency of binding; S = hSERT, N = hNET, D = hDAT) [2]: S > N > D
Potency Range (difference between most potent and least potent binding) [2]: 29 fold
IC50 ([13]; recombinant human P450, AMMC substrate, read-out: Mean CYP2D6 (IC50)): 60 nM
Immobility in forced swim test vs saline [14]: statistically (P<0.04) less immobility
Swimming in forced swim test vs saline [14]: statistically (P<0.04) more swimming behavior
Antidepressant activity in forced swim test compared with imipramine (15 mg/kg IP) [14]: antidepressant activity that was similar to that observed in rats treated with the positive control
IC50 [15]: 51800 nM
Blocking of hERG channel compared with PRC200-SS ([15]; in words): weaker than PRC200-SS at blocking this channel
Kd [11]: 0.82 ± 0.09 nM
Binding at hSERT compared to PRC200-SS ([11]; in words): greater binding at hSERT

CNC[C@H](c1ccc2ccccc2c1)[C@H](O)c1ccccc1 [PRC200-SS, (1S,2S)-3-(methylamino)-2-(naphthalen-2-yl)-1-phenylpropan-1-ol, reference compound]
Potency (rank-order of potency of binding; S = hSERT, N = hNET, D = hDAT) [2]: N > S > D
Potency (rank-order of potency of binding; S = hSERT, N = hNET, D = hDAT) ([2]; listed as PRC200): N>S>D
Potency Range (difference between most potent and least potent binding) [2]: 45 fold
Potency (rank order, transport into rat brain synaptosomal preparations) [3]: S > N > D
Ki [5]: 6 ± 2 nM
Ki [7]: 2.12 ± 0.9 nM
Ki [8]: 61 ± 4 nM
IC50 [13]: 80 nM
Immobility in forced swim test vs saline [14]: statistically (P<0.04) less immobility
Swimming in forced swim test vs saline [14]: statistically (P<0.04) more swimming behavior
Antidepressant activity in forced swim test compared with imipramine (15 mg/kg IP) [14]: antidepressant activity that was similar to that observed in rats treated with the positive control
Ki [9]: 6 ± 2 nM
Ki [10]: 2.8 ± 0.4 nM
IC50 [15]: 32600 nM

C[C@H](N)Cc1ccccc1 [d-amphetamine, reference compound]
Effect on locomotor activity [16]: caused a significant effect on locomotor activity
